Data as given in patent publication US20110152243A1, “NOVEL THIENOPYRROLE COMPOUNDS” (ABBOTT LABORATORIES, priority 2009, published 2011).

Each compound was assayed against PKCθ (Homo sapiens, UniProt Q04759) (assay: PKCθ enzyme data at 1 mM ATP).
Assay type: biochemical

Chain of PKCθ (Q04759 whole entry): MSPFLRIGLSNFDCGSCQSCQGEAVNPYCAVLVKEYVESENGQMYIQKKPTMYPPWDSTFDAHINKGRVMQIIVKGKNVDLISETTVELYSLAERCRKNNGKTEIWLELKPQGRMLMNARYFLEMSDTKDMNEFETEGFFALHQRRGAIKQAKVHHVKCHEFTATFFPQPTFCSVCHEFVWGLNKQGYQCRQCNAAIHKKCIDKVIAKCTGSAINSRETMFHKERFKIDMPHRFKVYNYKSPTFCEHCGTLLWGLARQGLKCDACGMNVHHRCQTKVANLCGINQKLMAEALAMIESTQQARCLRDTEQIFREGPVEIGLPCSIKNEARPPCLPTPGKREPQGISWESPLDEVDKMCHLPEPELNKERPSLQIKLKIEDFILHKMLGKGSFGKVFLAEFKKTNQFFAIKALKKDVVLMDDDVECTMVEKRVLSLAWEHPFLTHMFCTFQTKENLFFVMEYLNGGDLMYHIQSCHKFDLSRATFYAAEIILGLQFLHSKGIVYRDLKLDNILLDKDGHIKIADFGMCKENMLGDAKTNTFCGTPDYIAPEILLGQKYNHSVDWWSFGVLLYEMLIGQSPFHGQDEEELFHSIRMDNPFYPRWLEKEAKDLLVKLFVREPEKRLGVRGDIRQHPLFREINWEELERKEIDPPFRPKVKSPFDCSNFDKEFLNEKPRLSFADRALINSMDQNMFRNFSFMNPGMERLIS

Structure (SMILES)	IC50 [nM]
O=C1NC(=O)C(c2c[nH]c3ccsc23)=C1c1nc(NC2CCNCC2)nc2ccccc12 [G.1.8]	100 to 500
CN1CCN(c2nc(C3=C(c4c[nH]c5sccc45)C(=O)NC3=O)c3cc(Cl)ccc3n2)CC1 [F.4.13]	< 100
O=C1NC(=O)C(c2c[nH]c3ccsc23)=C1c1nc(N2CCN3CCC[C@H]3C2)nc2ccccc12 [E.2.4]	< 100
CN1CCN(c2nc(C3=C(c4c[nH]c5sccc45)C(=O)NC3=O)c3c(F)cccc3n2)CC1 [F.4.1, 3-(5-Fluoro-2-(4-methylpiperazin-1-yl)quinazolin-4-yl)-4-(6H-thieno[2,3-b]pyrrol-4-yl)-1H-pyrrole-2,5-dione]	< 100
O=C1NC(=O)C(c2c[nH]c3ccsc23)=C1c1nc(N2CCN3C(=O)CCC3C2)nc2ccccc12 (stereo not shown) [E.2.9]	100 to 500
CN(C)CC1CCn2c(c(C3=C(c4c[nH]c5sccc45)C(=O)NC3=O)c3ccccc32)C1 (stereo not shown) [Example #2, 3-(8-((Dimethylamino)methyl)-6,7,8,9-tetrahydropyrido[1,2-a]indol-10-yl)-4-(6H-thieno[2,3-b]pyrrol-4-yl)-1H-pyrrole-2,5-dione]	< 100
O=C1NC(=O)C(c2nc(N3CCN4CCC[C@@H]4C3)nc3cccc(F)c23)=C1c1c[nH]c2sccc12 [F.4.3, (R)-3-(5-Fluoro-2-(hexahydropyrrolo[1,2-a]pyrazin-2(1H)-yl)quinazolin-4-yl)-4-(6H-thieno[2,3-b]pyrrol-4-yl)-1H-pyrrole-2,5-dione]	< 100
CN1CCN(c2nc(C3=C(c4c[nH]c5sccc45)C(=O)NC3=O)c3ccsc3n2)CC1 [F.4.2, 3-(2-(4-Methylpiperazin-1-yl)thieno[2,3-d]pyrimidin-4-yl)-4-(6H-thieno[2,3-b]pyrrol-4-yl)-1H-pyrrole-2,5-dione]	< 100
CN1CCCC(Cn2nc(C3=C(c4c[nH]c5sccc45)C(=O)NC3=O)c3ccccc32)C1 (stereo not shown) [F.4.28]	100 to 500
CN1CCN(c2nccc(C3=C(c4c[nH]c5sccc45)C(=O)NC3=O)n2)CC1 [F.4.8]	500 to 1000
CN1CCC(Cn2cc(C3=C(c4c[nH]c5sccc45)C(=O)NC3=O)c3ccccc32)CC1 [F.4.17]	< 100
CN1CCN(c2nc(C3=C(c4c[nH]c5ccsc45)C(=O)NC3=O)c3ccccc3n2)CC1 [F.1.2, 3-(2-(4-Methylpiperazin-1-yl)quinazolin-4-yl)-4-(4H-thieno[3,2-b]pyrrol-6-yl)-1H-pyrrole-2,5-dione]	< 100
O=C1NC(=O)C(c2nn(CC3CCNCC3)c3ccccc23)=C1c1c[nH]c2sccc12 [G.1.12]	< 100
CN1CCN(c2nc(C3=C(c4c[nH]c5ccsc45)C(=O)NC3=O)c3ccsc3n2)CC1 [F.3.4]	< 100
O=C1NC(=O)C(c2c[nH]c3sccc23)=C1c1nc(N2CCNCC2)nc2sccc12 [G.1.18]	< 100
CCN1CCC(Cn2nc(C3=C(c4c[nH]c5sccc45)C(=O)NC3=O)c3ccccc32)CC1 [F.4.19]	100 to 500
COc1ccc2nc(N3CCN(C)CC3)nc(C3=C(c4c[nH]c5sccc45)C(=O)NC3=O)c2c1 [F.4.14]	< 100
NCC1CCN(c2nc(C3=C(c4c[nH]c5ccsc45)C(=O)NC3=O)c3ccccc3n2)CC1 [G.1.4]	100 to 500
CN1CCN(c2nc(C3=C(c4c[nH]c5sccc45)C(=O)NC3=O)c3cc(F)ccc3n2)CC1 [F.4.15]	< 100
CN1CCN(c2nc(C3=C(c4c[nH]c5sccc45)C(=O)NC3=O)c3sccc3n2)CC1 [F.4.9]	< 100
O=C1NC(=O)C(c2c3ccccc3nn2CC2CCNCC2)=C1c1c[nH]c2sccc12 [G.1.16]	100 to 500
CN(C)[C@H]1CC[C@@H](n2nc(C3=C(c4c[nH]c5sccc45)C(=O)NC3=O)c3ccccc32)CC1 [F.4.5]	< 100
CN1CC(Cn2nc(C3=C(c4c[nH]c5sccc45)C(=O)NC3=O)c3ccccc32)C1 [F.4.22]	< 100

Results, then the compound that gave them:

IC50 [nM]	Structure (SMILES)
< 100	O=C1NC(=O)C(c2c[nH]c3sccc23)=C1c1nc(N2CCNCC2)nc2ccccc12 [G.1.5]
100 to 500	CC(C)(O)c1ncc2n1CCN(c1nc(C3=C(c4c[nH]c5sccc45)C(=O)NC3=O)c3ccccc3n1)C2 [E.1.49]
100 to 500	O=C1NC(=O)C(c2c[nH]c3sccc23)=C1c1nc(N2C[C@@H]3C[C@H]2CN3)nc2ccccc12 [G.1.2]
< 100	CN1CCN(c2nc(C3=C(c4c[nH]c5sccc45)C(=O)NC3=O)c3ccccc3n2)CC1CO (stereo not shown) [E.1.45]
100 to 500	Cc1nccn1CC1CCN(c2nc(C3=C(c4c[nH]c5sccc45)C(=O)NC3=O)c3ccccc3n2)CC1 [E.1.3]
< 100	O=C1NC(=O)C(c2c[nH]c3sccc23)=C1c1nc(N2CC[C@@H](N3CCCC3)[C@H](F)C2)nc2ccccc12 [E.1.32]
< 100	Cc1ccc2nc(N3CCN(C)CC3)nc(C3=C(c4c[nH]c5sccc45)C(=O)NC3=O)c2c1 [F.4.31]
100 to 500	CN1CCN(c2nc(C3=C(c4c[nH]c5sccc45)C(=O)NC3=O)c3ncccc3n2)CC1 [F.4.25]
< 100	O=C1NC(=O)C(c2c[nH]c3sccc23)=C1c1nc(N2CCn3c(cnc3CO)C2)nc2ccccc12 [E.1.48]
100 to 500	C[C@@H]1CN(C2CCN(c3nc(C4=C(c5c[nH]c6sccc56)C(=O)NC4=O)c4ccccc4n3)CC2)C[C@H](C)O1 [E.1.6]
< 100	O=C1NC(=O)C(c2c[nH]c3sccc23)=C1c1nc(N2CCN(CCO)CC2)nc2ccccc12 [E.1.19]
100 to 500	O=C1NC(=O)C(c2c[nH]c3sccc23)=C1c1nc(N2CCn3ncnc3C2)nc2ccccc12 [E.1.38]
500 to 1000	NC(=O)C1CCN(c2nc(C3=C(c4c[nH]c5sccc45)C(=O)NC3=O)c3ccccc3n2)CC1 [E.1.14]
< 100	CN1CC2CCN(c3nc(C4=C(c5c[nH]c6sccc56)C(=O)NC4=O)c4ccccc4n3)CC2C1 (stereo not shown) [E.1.39]
< 100	O=C1NC(=O)C(c2c[nH]c3sccc23)=C1c1nc(N2CCC3(CCN3)CC2)nc2ccccc12 [E.1.35]
< 100	NC1(CCO)CCN(c2nc(C3=C(c4c[nH]c5sccc45)C(=O)NC3=O)c3ccccc3n2)CC1 [E.1.34]
< 100	O=C1NC(=O)C(c2c[nH]c3sccc23)=C1c1nc(N2CCN3CCC[C@H]3C2)nc2ccccc12 [E.1.44]
100 to 500	O=C1NC(=O)C(c2c[nH]c3sccc23)=C1c1nc(N2CCn3c(nnc3C(F)(F)F)C2)nc2ccccc12 [E.1.20]
< 100	O=C1NC(=O)C(c2c[nH]c3ccsc23)=C1c1nc(N2CCn3ccnc3C2)nc2ccccc12 [E.2.7]
< 100	CN1CCN(c2nc(C3=C(c4c[nH]c5sccc45)C(=O)NC3=O)c3ccccc3n2)CC1 [F.1.1, 3-(2-(4-Methylpiperazin-1-yl)quinazolin-4-yl)-4-(6H-thieno[2,3-b]pyrrol-4-yl)-1H-pyrrole-2,5-dione]
500 to 1000	CNCC1CCN(c2nc(C3=C(c4c[nH]c5sccc45)C(=O)NC3=O)c3ccccc3n2)C1 (stereo not shown) [G.1.14]
100 to 500	N#CC1CCN(c2nc(C3=C(c4c[nH]c5sccc45)C(=O)NC3=O)c3ccccc3n2)CC1 [E.1.9]
< 100	O=C1NC(=O)C(c2c[nH]c3sccc23)=C1c1nc(N2CC[C@@H]3NCC[C@@H]3C2)nc2ccccc12 (relative stereo) [G.1.19]
< 100	O=C1NC(=O)C(c2c[nH]c3sccc23)=C1c1nc(N2CCN(C3CC3)CC2)nc2ccccc12 [E.1.18]
100 to 500	CNC1(C)CCN(c2nc(C3=C(c4c[nH]c5sccc45)C(=O)NC3=O)c3ccccc3n2)CC1 [E.1.42]
500 to 1000	O=C1CN(c2nc(C3=C(c4c[nH]c5sccc45)C(=O)NC3=O)c3ccccc3n2)CCN1 [E.1.7]
